{"source": "ChEMBL document CHEMBL6182916", "about": "“Unexpected Discovery of a Novel Triphenylphosphonium Alkylalcohol That Triggers Cancer Cell Death via Mitophagy and Ferroptosis” (J Med Chem, 2025)", "key": {"[1]": {"tested_on": "A-375", "assay": "Anticancer activity against human A-375 cells assessed as inhibition of cell growth by MTT assay", "format": "functional, cell-based"}, "[2]": {"tested_on": "HCC827", "assay": "Induction of apoptosis in human HCC827 cells assessed as viable cells at 1.0 uM measured after 48 hrs by annexin V and PI staining based flow cytometry analysis (reference value: 96.74%)", "format": "functional", "conditions": "read-out: Activity"}, "[3]": {"tested_on": "HCC827", "assay": "Induction of mitochondrial dysfunction in human HCC827 cells assessed as cytochrome C release in cytoplasm at 1 uM measured after 72 hrs by laser scanning confocal fluorescence microscopic analysis", "format": "functional, cell-based"}, "[4]": {"tested_on": "NCI-H1299", "assay": "Antiproliferative activity against human NCI-H1299 cells assessed as inhibition of cell growth measured after 72 hrs by MTT assay", "format": "functional, cell-based", "conditions": "NCI-H1299, 72 h"}, "[5]": {"tested_on": "HCC827", "assay": "Induction of ROS generation in human HCC827 cells assessed as increase in NAD+/NADH ratio at 1 uM incubated for 4 hrs by absorbance based analysis", "format": "functional, cell-based"}, "[6]": {"tested_on": "NCI-H1975", "assay": "Antiproliferative activity against human NCI-H1975 cells assessed as inhibition of cell growth measured after 72 hrs by MTT assay", "format": "functional, cell-based", "conditions": "NCI-H1975, 72 h"}, "[7]": {"tested_on": "A-375", "assay": "Antiproliferative activity against human A-375 cells assessed as inhibition of cell growth measured after 72 hrs by MTT assay", "format": "functional, cell-based", "conditions": "A-375, 72 h"}, "[8]": {"assay": "Antiproliferative activity against human BEAS-2B cells assessed as inhibition of cell growth measured after 72 hrs by MTT assay", "format": "toxicity, cell-based"}, "[9]": {"tested_on": "HCC827", "assay": "Induction of cell cycle arrest in human HCC827 cells assessed as accumulation of cells at G1 phase at 0.4 uM incubated for 24 hrs by PI staining based flow cytometry analysis (reference value: 66.44%)", "format": "functional"}, "[10]": {"tested_on": "MCF7", "assay": "Antiproliferative activity against human MCF7 cells assessed as inhibition of cell growth measured after 72 hrs by MTT assay", "format": "functional, cell-based", "conditions": "MCF7, 72 h"}, "[11]": {"tested_on": "SK-LU-1", "assay": "Antiproliferative activity against human SK-LU-1 cells assessed as inhibition of cell growth measured after 72 hrs by MTT assay", "format": "functional, cell-based", "conditions": "SK-LU-1, 72 h"}, "[12]": {"assay": "Drug accumulation in mitochondria of human HCC827 cells at 10 uM incubated for 10 mins in presence of CCCP by RP-HPLC-UV analysis", "format": "ADME", "conditions": "hcc827, 10 min"}, "[13]": {"tested_on": "HCC827", "assay": "Induction of apoptosis in human HCC827 cells assessed as early apoptotic cells at 1 uM measured after 48 hrs by annexin V and PI staining based flow cytometry analysis (reference value: 0.70%)", "format": "functional"}, "[14]": {"tested_on": "Mitochondrial membrane", "assay": "Induction of mitochondrial membrane depolarization in human HCC827 cells assessed as increase in J-monomer ratio at 0.5 uM incubated for 4 hrs by JC-1 staining based flow cytometric analysis", "format": "cell membranes"}, "[15]": {"tested_on": "HCC827", "assay": "Inhibition of colony formation in human HCC827 cells at 0.2 uM incubated for 72 hrs by crystal violet staining based analysis", "format": "functional, cell-based"}, "[16]": {"tested_on": "HCC827", "assay": "Induction of cell cycle arrest in human HCC827 cells assessed as accumulation of cells at S phase at 0.4 uM incubated for 24 hrs by PI staining based flow cytometry analysis (reference value: 26.41%)", "format": "functional"}, "[17]": {"tested_on": "HCC827", "assay": "Induction of apoptosis in human HCC827 cells assessed as necrotic cells at 1 uM measured after 48 hrs by annexin V and PI staining based flow cytometry analysis (reference value: 1.18%)", "format": "functional"}, "[18]": {"tested_on": "Osimertinib-resistant NCI-H1975 cell", "assay": "Antiproliferative activity against human Osimertinib-resistant NCI-H1975 cell assessed as inhibition of cell growth measured after 72 hrs by MTT assay", "format": "functional, cell-based"}, "[19]": {"tested_on": "HCC827", "assay": "Induction of ROS generation in human HCC827 cells assessed as decrease in NADH content at 1 uM incubated for 4 hrs by absorbance based analysis", "format": "functional, cell-based"}, "[20]": {"tested_on": "HCC827", "assay": "Induction of apoptosis in human HCC827 cells assessed as late apoptotic cells at 1 uM measured after 48 hrs by annexin V and PI staining based flow cytometry analysis (reference value: 1.29%)", "format": "functional"}, "[21]": {"tested_on": "MDA-MB-231", "assay": "Antiproliferative activity against human MDA-MB-231 cells assessed as inhibition of cell growth measured after 72 hrs by MTT assay", "format": "functional, cell-based", "conditions": "MDA-MB-231, 72 h"}, "[22]": {"tested_on": "HCC827", "assay": "Antiproliferative activity against human HCC827 cells assessed as inhibition of cell growth measured after 72 hrs by MTT assay", "format": "functional, cell-based", "conditions": "HCC827, 72 h"}, "[23]": {"assay": "Drug accumulation in mitochondria of human HCC827 cells at 10 uM incubated for 5 mins", "format": "ADME", "conditions": "hcc827, 5 min"}, "[24]": {"tested_on": "NCI-H460", "assay": "Antiproliferative activity against human NCI-H460 cells assessed as inhibition of cell growth measured after 72 hrs by MTT assay", "format": "functional, cell-based", "conditions": "NCI-H460, 72 h"}, "[25]": {"assay": "Antiproliferative activity against human LO2 cells assessed as inhibition of cell growth measured after 72 hrs by MTT assay", "format": "toxicity, cell-based, L02"}, "[26]": {"tested_on": "NCI-H1650", "assay": "Antiproliferative activity against human NCI-H1650 cells assessed as inhibition of cell growth measured after 72 hrs by MTT assay", "format": "functional, cell-based", "conditions": "NCI-H1650, 72 h"}, "[27]": {"tested_on": "HCC827", "assay": "Induction of cell cycle arrest in human HCC827 cells assessed as accumulation of cells at G2 phase at 0.4 uM incubated for 24 hrs by PI staining based flow cytometry analysis (reference value: 7.15%)", "format": "functional"}, "[28]": {"assay": "Antiproliferative activity against HEK293T cells assessed as inhibition of cell growth measured after 72 hrs by MTT assay", "format": "toxicity, cell-based, HEK-293T", "conditions": "human"}, "[29]": {"assay": "Antiproliferative activity against human HUVEC cells assessed as inhibition of cell growth measured after 72 hrs by MTT assay", "format": "toxicity, cell-based"}, "[30]": {"assay": "Antiproliferative activity against human Osimertinib-resistant HCC827 cell assessed as inhibition of cell growth measured after 72 hrs by MTT assay", "format": "functional, cell-based"}, "[31]": {"tested_on": "HCT-116", "assay": "Antiproliferative activity against human HCT-116 cells assessed as inhibition of cell growth measured after 72 hrs by MTT assay", "format": "functional, cell-based", "conditions": "HCT-116, 72 h"}, "[32]": {"tested_on": "A549", "assay": "Antiproliferative activity against human A549 cells assessed as inhibition of cell growth measured after 72 hrs by MTT assay", "format": "functional, cell-based", "conditions": "A549, 72 h"}, "[33]": {"tested_on": "HCC827", "assay": "Antitumor activity against human HCC827 cells xenografted in female nude mouse model assessed as suppression of tumor growth at 100 mg/kg, ip measured every two days for 14 days", "format": "functional, organism-based", "conditions": "time 14.0 day"}, "[34]": {"assay": "Drug uptake in human HCC827 cells mitochondria assessed as increase in fluorescence intensity at 10 uM by fluorescence emission spectroscopy analysis", "format": "ADME", "conditions": "hcc827, 10 µM"}, "[35]": {"assay": "Drug localization in mitochondria of human HCC827 cells assessed as increase in green fluorescence by measuring pearson correlation coefficient at 10 uM incubated for 10 mins by mito-tracker green dye based confocal scanning microscopy analysis", "format": "ADME", "conditions": "hcc827, 10 min"}, "[36]": {"assay": "Drug metabolism in human HCC827 cells mitochondria assessed as 2-(2-(4-hydroxystyryl)-4H-chromen-4-ylidene)malononitrile hydrolysis at 10 uM incubated for 5 mins by fluorescence emission spectroscopy analysis", "format": "ADME", "conditions": "hcc827, 5 min"}}, "note": "Activity calls are given as the source filed them. The rule behind the calls is not given here.", "data": [{"smiles": "O=C(CCCCC(CCSCc1ccccc1)SCc1ccccc1)OCCCCCCCCCC[P+](c1ccccc1)(c1ccccc1)c1ccccc1", "note": "(centres undefined)", "values": [{"measurement": "IC50", "setting": "[1]", "result": 0.1, "unit": "µM"}]}, {"smiles": "OCCCCC[P+](c1ccccc1)(c1ccccc1)c1ccccc1", "values": [{"measurement": "IC50", "setting": "[1]", "result": "> 40", "unit": "µM"}]}, {"smiles": "O=C(O)CCCCC(CCSCc1ccccc1)SCc1ccccc1", "note": "(centres undefined) [CPI 613]", "values": [{"measurement": "IC50", "setting": "[1]", "result": "> 100", "unit": "µM"}]}, {"smiles": "OCCCCCCCCCC[P+](c1ccccc1)(c1ccccc1)c1ccccc1.[Br-]", "values": [{"measurement": "viability at 1 µM", "setting": "[2]", "result": 94.1, "unit": "%"}, {"measurement": "Activity", "setting": "[3]", "result": "inactive"}, {"measurement": "IC50", "setting": "[1]", "result": 0.41, "unit": "µM"}, {"measurement": "IC50", "setting": "[4]", "result": "> 5", "unit": "µM"}, {"measurement": "Activity", "setting": "[5]", "result": "Active"}, {"measurement": "IC50", "setting": "[6]", "result": 0.32, "unit": "µM"}, {"measurement": "IC50", "setting": "[7]", "result": 0.41, "unit": "µM"}, {"measurement": "IC50 at 72 h", "setting": "[8]", "result": 1.14, "unit": "µM"}, {"measurement": "Activity", "setting": "[9]", "result": 74.82, "unit": "%"}, {"measurement": "IC50", "setting": "[10]", "result": 0.31, "unit": "µM"}, {"measurement": "IC50", "setting": "[11]", "result": 0.54, "unit": "µM"}, {"measurement": "Drug uptake", "setting": "[12]", "result": "Not_active"}, {"measurement": "Activity", "setting": "[13]", "result": 2.5, "unit": "%"}, {"measurement": "Activity", "setting": "[14]", "result": "inactive"}, {"measurement": "inhibition", "setting": "[15]", "result": "Weak_effect"}, {"measurement": "Activity", "setting": "[16]", "result": 19.19, "unit": "%"}, {"measurement": "Activity", "setting": "[17]", "result": 0.7, "unit": "%"}, {"measurement": "IC50", "setting": "[18]", "result": 0.57, "unit": "µM"}, {"measurement": "Activity", "setting": "[19]", "result": "Active"}, {"measurement": "Activity", "setting": "[20]", "result": 4.02, "unit": "%"}, {"measurement": "IC50", "setting": "[21]", "result": 0.55, "unit": "µM"}, {"measurement": "IC50", "setting": "[22]", "result": 0.23, "unit": "µM"}, {"measurement": "Drug uptake", "setting": "[23]", "result": "~ 90%"}, {"measurement": "IC50", "setting": "[24]", "result": 0.95, "unit": "µM"}, {"measurement": "IC50 at 72 h", "setting": "[25]", "result": 3.12, "unit": "µM"}, {"measurement": "IC50", "setting": "[26]", "result": 0.71, "unit": "µM"}, {"measurement": "Activity", "setting": "[27]", "result": 6, "unit": "%"}, {"measurement": "IC50 at 72 h", "setting": "[28]", "result": 2.79, "unit": "µM"}, {"measurement": "IC50 at 72 h", "setting": "[29]", "result": 2.38, "unit": "µM"}, {"measurement": "IC50", "setting": "[30]", "result": 0.34, "unit": "µM"}, {"measurement": "IC50", "setting": "[31]", "result": 0.94, "unit": "µM"}, {"measurement": "IC50", "setting": "[32]", "result": 1.07, "unit": "µM"}]}, {"smiles": "COc1cc2ncnc(Nc3ccc(F)c(Cl)c3)c2cc1OCCCN1CCOCC1", "values": [{"measurement": "Activity", "setting": "[33]", "result": "Active"}]}, {"smiles": "N#CC(C#N)=C1C=C(/C=C/c2ccc(OC(=O)OCCCCCCCCCC[P+](c3ccc(C(F)(F)F)cc3)(c3ccc(C(F)(F)F)cc3)c3ccc(C(F)(F)F)cc3)cc2)Oc2ccccc21.[Br-]", "values": [{"measurement": "Drug uptake", "setting": "[34]", "result": "Not_active"}, {"measurement": "Drug uptake", "setting": "[35]", "result": 0.46}, {"measurement": "Drug metabolism", "setting": "[36]", "result": "metabolite_detected"}]}]}
